Results on 19 compounds are retold here after patent US9505745B2, “Enhancer of zeste homolog 2 inhibitors” (GlaxoSmithKline Intellectual Property (No.2) Limited, priority 2013, dated 2016).

Structures can show the parent of a compound that is named as a salt.

The term IC50 denotes the concentration that inhibits the measured activity by half.

Sequence of EZH2 within the PRC2 complex (Q15910 whole entry): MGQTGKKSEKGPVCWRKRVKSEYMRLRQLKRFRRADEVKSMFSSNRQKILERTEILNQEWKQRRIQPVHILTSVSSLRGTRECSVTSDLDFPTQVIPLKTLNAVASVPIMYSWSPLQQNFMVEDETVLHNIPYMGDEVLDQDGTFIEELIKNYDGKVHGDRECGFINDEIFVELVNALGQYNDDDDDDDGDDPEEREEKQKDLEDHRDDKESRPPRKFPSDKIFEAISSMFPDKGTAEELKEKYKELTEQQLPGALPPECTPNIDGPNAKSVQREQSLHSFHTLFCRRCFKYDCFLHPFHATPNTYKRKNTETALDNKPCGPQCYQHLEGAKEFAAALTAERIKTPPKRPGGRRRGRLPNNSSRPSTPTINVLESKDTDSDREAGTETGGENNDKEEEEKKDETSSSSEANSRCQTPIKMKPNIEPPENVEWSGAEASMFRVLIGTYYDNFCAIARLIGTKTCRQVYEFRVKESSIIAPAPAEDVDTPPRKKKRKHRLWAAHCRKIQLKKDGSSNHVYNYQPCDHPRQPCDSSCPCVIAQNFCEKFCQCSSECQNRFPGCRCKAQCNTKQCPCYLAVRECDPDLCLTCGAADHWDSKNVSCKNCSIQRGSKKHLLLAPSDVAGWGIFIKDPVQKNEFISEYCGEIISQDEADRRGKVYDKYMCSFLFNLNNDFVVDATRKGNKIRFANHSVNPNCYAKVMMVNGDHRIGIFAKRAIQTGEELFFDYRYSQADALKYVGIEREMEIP
Sequence of EZH2 within the PRC2 complex (O75530 whole entry partner): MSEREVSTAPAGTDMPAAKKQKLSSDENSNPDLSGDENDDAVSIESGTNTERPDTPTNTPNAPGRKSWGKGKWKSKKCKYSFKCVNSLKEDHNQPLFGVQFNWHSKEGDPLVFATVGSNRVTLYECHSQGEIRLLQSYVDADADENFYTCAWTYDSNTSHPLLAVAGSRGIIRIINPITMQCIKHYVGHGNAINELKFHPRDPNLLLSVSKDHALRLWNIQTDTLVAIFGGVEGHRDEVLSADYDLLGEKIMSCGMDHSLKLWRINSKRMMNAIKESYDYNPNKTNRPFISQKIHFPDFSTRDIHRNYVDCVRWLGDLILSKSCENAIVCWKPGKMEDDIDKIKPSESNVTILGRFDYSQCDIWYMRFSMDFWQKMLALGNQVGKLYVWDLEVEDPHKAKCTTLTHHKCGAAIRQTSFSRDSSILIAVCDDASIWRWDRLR
Sequence of EZH2 within the PRC2 complex (Q15022 whole entry partner): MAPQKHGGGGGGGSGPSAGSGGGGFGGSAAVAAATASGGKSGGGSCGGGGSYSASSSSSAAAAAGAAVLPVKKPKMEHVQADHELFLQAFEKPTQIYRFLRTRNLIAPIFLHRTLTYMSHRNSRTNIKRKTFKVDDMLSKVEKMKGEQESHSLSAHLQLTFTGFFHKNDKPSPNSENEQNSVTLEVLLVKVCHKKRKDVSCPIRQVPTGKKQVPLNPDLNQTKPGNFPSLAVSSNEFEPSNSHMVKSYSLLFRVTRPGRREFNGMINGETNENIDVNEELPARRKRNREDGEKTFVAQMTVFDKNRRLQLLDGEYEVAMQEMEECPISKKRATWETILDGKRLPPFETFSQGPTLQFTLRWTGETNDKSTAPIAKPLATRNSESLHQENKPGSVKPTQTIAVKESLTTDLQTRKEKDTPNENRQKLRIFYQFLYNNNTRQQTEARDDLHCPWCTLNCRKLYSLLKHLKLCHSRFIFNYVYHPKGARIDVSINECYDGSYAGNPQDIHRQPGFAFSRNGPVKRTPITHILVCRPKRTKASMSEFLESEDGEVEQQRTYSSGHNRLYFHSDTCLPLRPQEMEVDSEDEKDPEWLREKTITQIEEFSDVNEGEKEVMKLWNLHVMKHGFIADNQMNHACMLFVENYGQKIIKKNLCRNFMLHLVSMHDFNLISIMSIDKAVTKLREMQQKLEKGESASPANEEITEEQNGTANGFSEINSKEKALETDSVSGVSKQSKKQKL
Sequence of EZH2 within the PRC2 complex (Q09028 whole entry partner): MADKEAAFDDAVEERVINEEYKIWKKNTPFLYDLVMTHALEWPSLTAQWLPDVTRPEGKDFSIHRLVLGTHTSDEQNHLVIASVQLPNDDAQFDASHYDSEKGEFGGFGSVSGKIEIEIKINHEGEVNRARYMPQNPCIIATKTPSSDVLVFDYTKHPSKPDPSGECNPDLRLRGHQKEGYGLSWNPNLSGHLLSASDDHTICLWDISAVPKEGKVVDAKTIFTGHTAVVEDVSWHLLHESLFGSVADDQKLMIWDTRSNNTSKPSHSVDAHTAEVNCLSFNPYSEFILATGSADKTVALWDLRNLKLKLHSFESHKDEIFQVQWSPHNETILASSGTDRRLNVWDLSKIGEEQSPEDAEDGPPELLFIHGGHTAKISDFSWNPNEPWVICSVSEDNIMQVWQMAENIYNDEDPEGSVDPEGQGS
Sequence of EZH2 within the PRC2 complex (Q6ZN18 whole entry partner): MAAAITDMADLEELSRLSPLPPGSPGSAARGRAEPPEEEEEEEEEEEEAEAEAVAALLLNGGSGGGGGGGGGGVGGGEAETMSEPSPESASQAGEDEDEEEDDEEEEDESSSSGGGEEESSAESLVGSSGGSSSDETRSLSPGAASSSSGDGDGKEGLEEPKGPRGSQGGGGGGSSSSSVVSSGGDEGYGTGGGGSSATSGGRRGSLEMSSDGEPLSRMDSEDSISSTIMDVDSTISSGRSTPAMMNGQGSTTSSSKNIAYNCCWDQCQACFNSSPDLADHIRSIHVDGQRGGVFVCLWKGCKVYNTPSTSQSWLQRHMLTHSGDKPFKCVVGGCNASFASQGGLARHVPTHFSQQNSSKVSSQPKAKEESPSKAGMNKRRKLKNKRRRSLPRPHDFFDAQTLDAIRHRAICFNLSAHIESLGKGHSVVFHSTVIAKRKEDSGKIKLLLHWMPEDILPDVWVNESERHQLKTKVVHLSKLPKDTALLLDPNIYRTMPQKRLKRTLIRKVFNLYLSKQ

For the experiment, the target named is EZH2 within the PRC2 complex (Homo sapiens (Human), UniProt Q15910). In words: EZH2 methyltransferase SPA, biotinylated histone H3K27 peptide substrate (Assay Protocol 2). Type of experiment: biochemical. Particulars: 3H-SAM, ≦10 nM approaches limit of detection. The method, then:
Compounds contained herein were evaluated for their ability to inhibit the methyltransferase activity of EZH2 within the PRC2 complex. Human PRC2 complex was prepared by co-expressing each of the 5 member proteins (FLAG-EZH2, EED, SUZ12, RbAp48, AEBP2) in Sf9 cells followed by co-purification. Enzyme activity was measured in a scintillation proximity assay (SPA) where a tritiated methyl group is transferred from 3H-SAM to a lysine residue on a biotinylated, unmethylated peptide substrate derived from histone H3. The peptides were captured on streptavidin-coated SPA beads and the resulting signal was read on a ViewLux plate reader.
Part A. Compound Preparation
• 4. Prepare 10 mM stock of compounds from solid in 100% DMSO. • 5. Set up an 11-point serial dilution (1:4 dilution, top concentration 10 mM) in 100% DMSO for each test compound in a 384 well plate leaving columns 6 and 18 for DMSO controls. • 6. Dispense 10 nL of compound from the dilution plate into reaction plates (Corning, 384-well polystyrene NBS, Cat#3673). Part B. Reagent Preparation Prepare the following solutions: • 7. 1× Base Buffer, 50 mM Tris-HCl, pH 8, 2 mM MgCl2: Per 1 L of base buffer, combine 1 M Tris-HCl, pH 8 (50 mL), 1 M MgCl2 (2 mL), and distilled water (948 mL). • 8. 1× Assay Buffer: Per 10 mL of 1× Assay Buffer, combine 1× Base Buffer (9.96 mL), 1 M DTT (40 uL), and 10% Tween-20 (1 uL) to provide a final concentration of 50 mM Tris-HCl, pH 8, 2 mM MgCl2, 4 mM DTT, 0.001% Tween-20. • 9. 2× Enzyme Solution: Per 10 mL of 2× Enzyme Solution, combine 1× Assay Buffer (9.99 mL) and 3.24 uM EZH2 5 member complex (6.17 uL) to provide a final enzyme concentration of 1 nM. • 10. SPA Bead Solution: Per 1 mL of SPA Bead Solution, combine Streptavidin coated SPA beads (PerkinElmer, Cat#RPNQ0261, 40 mg) and 1× Assay Buffer (1 mL) to provide a working concentration of 40 mg/mL. • 11. 2× Substrate Solution: Per 10 mL of 2× Substrate Solution, combine 40 mg/mL SPA Bead Solution (375 uL), 1 mM biotinylated histone H3K27 peptide (200 uL), 12.5 uM 3H-SAM (240 uL; 1 mCi/mL), 1 mM cold SAM (57 uL), and 1× Assay Buffer (9.13 mL) to provide a final concentration of 0.75 mg/mL SPA Bead Solution, 10 uM biotinylated histone H3K27 peptide, 0.15 uM 3H-SAM (˜12 uCi/mL 3H-SAM), and 2.85 uM cold SAM. • 12. 2.67× Quench Solution: Per 10 mL of 2.67× Quench Solution, combine 1× Assay Buffer (9.73 mL) and 10 mM cold SAM (267 uL) to provide a final concentration of 100 uM cold SAM. Part C. Assay Reaction in 384-well Grenier Bio-One Plates Compound Addition • 3. Stamp 10 nL/well of 1000× Compound to test wells (as noted above). • 4. Stamp 10 nL/well of 100% DMSO to columns 6 & 18 (high and low controls, respectively). Assay • 10. Dispense 5 uL/well of 1× Assay Buffer to column 18 (low control reactions). • 11. Dispense 5 uL/well of 2× Substrate Solution to columns 1-24 (note: substrate solution should be mixed to ensure homogeneous bead suspension before dispensing into matrix reservoir). • 12. Dispense 5 uL/well of 2× Enzyme Solution to columns 1-17, 19-24. • 13. Incubate the reaction for 60 min at room temperature. Quench • 5. Dispense 6 uL/well of the 2.67× Quench Solution to columns 1-24. • 6. Seal assay plates and spin for ˜1 min at 500 rpm. • 7. Dark adapt plates in the ViewLux instrument for 15-60 min. Read plates • 2. Read the assay plates on the Viewlux Plate Reader utilizing the 613 nm emission filter or clear filter (300 s exposure). Reagent addition can be done manually or with automated liquid handler. Results
Percent inhibition was calculated relative to the DMSO control for each compound concentration and the resulting values were fit using standard IC50 fitting parameters within the ABASE data fitting software package.
Consider `CCC(c1scc(C(=O)NCc2c(C)cc(C)[nH]c2=O)c1C)[C@H]1CC[C@H](N)CC1` (stereo partly drawn) [Example 43, 5-(1-((trans)-4-Aminocyclohexyl)propyl)-N-((4,6-dimethyl-2-oxo-1,2-dihydropyridin-3-yl)methyl)-4-methylthiophene-3-carboxamide], for which the IC50 came to 16 nM. That is a double-digit nanomolar value.
Then `CCN(CC)c1sc(Br)c(C(=O)NCc2c(C)cc(C)[nH]c2=O)c1C` [Example 52, 2-Bromo-5-(diethylamino)-N-((4,6-dimethyl-2-oxo-1,2-dihydropyridin-3-yl)methyl)-4-methylthiophene-3-carboxamide], with 316 nM; and `CCN(c1sc(C)c(C(=O)NCc2c(C)cc(C)[nH]c2=O)c1C)C1CCOCC1` [Example 54, N-((4,6-Dimethyl-2-oxo-1,2-dihydropyridin-3-yl)methyl)-5-(ethyl(tetrahydro-2H-pyran-4-yl)amino)-2,4-dimethylthiophene-3-carboxamide hydrochloride], with 32 nM.
Then `CCN(c1sc(C2CCNCC2)c(C(=O)NCc2c(C)cc(C)[nH]c2=O)c1C)C1CCOCC1` [Example 60, N-((4,6-Dimethyl-2-oxo-1,2-dihydropyridin-3-yl)methyl)-5-(ethyl(tetrahydro-2H-pyran-4-yl)amino)-4-methyl-2-(piperidin-4-yl)thiophene-3-carboxamide hydrochloride], with 631 nM; and `Cc1cc(C)c(CNC(=O)c2csc(-c3cccc4c3CCNC4)c2C)c(=O)[nH]1` [Example 70, N-((4,6-Dimethyl-2-oxo-1,2-dihydropyridin-3-yl)methyl)-4-methyl-5-(1,2,3,4-tetrahydroisoquinolin-5-yl)thiophene-3-carboxamide hydrochloride], with 100 nM; and `CCN(c1sc(C2CCNC2)c(C(=O)NCc2c(C)cc(C)[nH]c2=O)c1C)C1CCOCC1` (stereo not shown) [Example 58, N-((4,6-Dimethyl-2-oxo-1,2-dihydropyridin-3-yl)methyl)-5-(ethyl(tetrahydro-2H-pyran-4-yl)amino)-4-methyl-2-(pyrrolidin-3-yl)thiophene-3-carboxamide hydrochloride], with 794 nM.
The figure for `CCN(c1sc(-c2cnn(C)c2)c(C(=O)NCc2c(C)cc(C)[nH]c2=O)c1C)C1CCOCC1` [Example 78, N-((4,6-dimethyl-2-oxo-1,2-dihydropyridin-3-yl)methyl)-5-(ethyl(tetrahydro-2H-pyran-4-yl)amino)-4-methyl-2-(1-methyl-1H-pyrazol-4-yl)thiophene-3-carboxamide] is 100 nM; for `CCN(c1sc(Br)c(C(=O)NCc2c(C)cc(C)[nH]c2=O)c1C)[C@H]1CC[C@H](N(C)C)CC1` [Example 50, 2-Bromo-N-((4,6-dimethyl-2-oxo-1,2-dihydropyridin-3-yl)methyl)-5-(((trans)-4-(dimethylamino)cyclohexyl)(ethyl)amino)-4-methylthiophene-3-carboxamide hydrochloride] it is 20 nM.
For the compound `CCN(c1sc(C2=CCN(C)CC2)c(C(=O)NCc2c(C)cc(C)[nH]c2=O)c1C)C1CCOCC1` [Example 61, N-((4,6-Dimethyl-2-oxo-1,2-dihydropyridin-3-yl)methyl)-5-(ethyl(tetrahydro-2H-pyran-4-yl)amino)-4-methyl-2-(1-methyl-1,2,3,6-tetrahydropyridin-4-yl)thiophene-3-carboxamide], the IC50 is 501 nM. Against the preceding compound, the IC50 is about 25-fold higher.
Then `CCN(c1sc(C#N)c(C(=O)NCc2c(C)cc(C)[nH]c2=O)c1C)C1CCOCC1` [Example 55, 2-Cyano-N-((4,6-dimethyl-2-oxo-1,2-dihydropyridin-3-yl)methyl)-5-(ethyl(tetrahydro-2H-pyran-4-yl)amino)-4-methylthiophene-3-carboxamide hydrochloride], with 79 nM; and `CC[C@@H](c1scc(C(=O)NCc2c(C)cc(C)[nH]c2=O)c1C)N1CCC(N(C)C)CC1` [Example 41, (S)-(−)-N-((4,6-Dimethyl-2-oxo-1,2-dihydropyridin-3-yl)methyl)-5-(1-(4-(dimethylamino)piperidin-1-yl)propyl)-4-methylthiophene-3-carboxamide], with 20 nM.
The figure for `CCN(c1scc(C(=O)NCc2c(C)cc(C)[nH]c2=O)c1C)C1CCN(C(C)C)CC1` [Example 66, N-((4,6-dimethyl-2-oxo-1,2-dihydropyridin-3-yl)methyl)-5-(ethyl(1-isopropylpiperidin-4-yl)amino)-4-methylthiophene-3-carboxamide] is 63 nM; for `C/C=C(/c1scc(C(=O)NCc2c(C)cc(C)[nH]c2=O)c1C)[C@H]1CC[C@H](NC(=O)OC(C)(C)C)CC1` [Example 34, tert-Butyl ((trans)-4-((E)-1-(4-(((4,6-dimethyl-2-oxo-1,2-dihydropyridin-3-yl)methyl)carbamoyl)-3-methylthiophen-2-yl)prop-1-en-1-yl)cyclohexyl)carbamate] it is 100 nM; for `CCN(c1sc(Cl)c(C(=O)NCc2c(C)cc(C)[nH]c2=O)c1C)C1CCOCC1` [Example 53, 2-Chloro-N-((4,6-dimethyl-2-oxo-1,2-dihydropyridin-3-yl)methyl)-5-(ethyl(tetrahydro-2H-pyran-4-yl)amino)-4-methylthiophene-3-carboxamide] it is 16 nM.
With `CCC(c1scc(C(=O)NCc2c(C)cc(C)[nH]c2=O)c1C)C1CCN(C(=O)OC(C)(C)C)CC1` (stereo not shown) [Example 39, tert-Butyl 4-(1-(4-(((4,6-dimethyl-2-oxo-1,2-dihydropyridin-3-yl)methyl)carbamoyl)-3-methylthiophen-2-yl)propyl)piperidine-1-carboxylate], the IC50 came to 50 nM.
For `CCN(c1sc(C#N)c(C(=O)NCc2c(C)cc(C)[nH]c2=O)c1C)[C@H]1CC[C@H](N(C)C)CC1` [Example 51, 2-Cyano-N-((4,6-dimethyl-2-oxo-1,2-dihydropyridin-3-yl)methyl)-5-(((trans)-4-(dimethylamino)cyclohexyl)(ethyl)amino)-4-methylthiophene-3-carboxamide], the IC50 is 25 nM. Against the preceding compound, the IC50 is about 2-fold lower.
The figure for `C/C=C(/CCCN1CCC(N(C)C)CC1)c1scc(C(=O)NCc2c(C)cc(C)[nH]c2=O)c1C` [Example 74, (Z)—N-((4,6-Dimethyl-2-oxo-1,2-dihydropyridin-3-yl)methyl)-5-(6-(4-(dimethylamino)piperidin-1-yl)hex-2-en-3-yl)-4-methylthiophene-3-carboxamide formate] is 200 nM; for `CCC(=C1CCNCC1)c1scc(C(=O)NCc2c(C)cc(C)[nH]c2=O)c1C` [Example 48, N-((4,6-dimethyl-2-oxo-1,2-dihydropyridin-3-yl)methyl)-4-methyl-5-(1-(piperidin-4-ylidene)propyl)thiophene-3-carboxamide] it is ≤ 10 nM.
Then `CCC(c1scc(C(=O)NCc2c(C)cc(C)[nH]c2=O)c1C)[C@H]1CC[C@H](N(C)C)CC1` (single isomer, unassigned; (+)) [Example 45, (+)-N-((4,6-Dimethyl-2-oxo-1,2-dihydropyridin-3-yl)methyl)-5-(1-((trans)-4-(dimethylamino)cyclohexyl)propyl)-4-methylthiophene-3-carboxamide], with ≤ 10 nM.
